Test results: patent US20260234165A1, “MACROCYCLIC COMPOUNDS, PREPARATION METHOD THEREFOR, AND USE THEREOF” (GENFLEET THERAPEUTICS (SHANGHAI) INC., priority 2004, published 2026)
Like-named read-outs stand apart in the source and are kept apart here.

How the values were obtained:
NCI-H441 cells = experiment: 3D cell proliferation assay (CellTiter Glo-3D), NCI-H441; format: cell-based, human; details: medium with 2% FBS, read-out: H441 AP IC50
How it was run: (§1)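 Cells were seeded at 800 per well in RPMI-1640 containing 2% FBS and left overnight. Compounds in 3.16-fold dilution series were then added at 0.1% DMSO and incubated 5 days at 37 °C. Viability was read by CellTiter-Glo 3D luminescence and IC50 values fitted by four-parameter regression.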

[1] = tested on: AsPC-1 cells (KRAS G12D mutation); experiment: 3D cell proliferation assay (CellTiter Glo-3D), AsPC-1; format: cell-based, human; details: medium with 2% FBS, read-out: AsPC-1 AP IC50
How it was run: as §1

[2] = Homo sapiens, NCI-H441, 3D cell proliferation (CellTiter Glo-3D)
[3] = Homo sapiens, ASPC1, 3D cell proliferation (CellTiter Glo-3D)
[4] = 3D cell proliferation (CellTiter Glo-3D)

| Compound | IC50 (NCI-H441 cells; [2]) [nM] | IC50 [1, 3] [nM] | IC50 (NCI-H441 cells; [4]) [nM] | IC50 [1, 4] [nM] |
| --- | --- | --- | --- | --- |
| CCn1c(-c2cc(N3CCN4CC5(CC5)OC[C@@H]4C3)cnc2[C@H](C)OC)c2c3cc(ccc31)-c1csc(n1)C[C@H](NC(=O)[C@H]1[C@H](C)[C@@H]1C)C(=O)N1CCC[C@H](N1)C(=O)OCC1(CC1)C2 (atropisomer, axis not shown; (Ra)) [Compound Z13] | 1.2 | 5 |  |  |
| CCn1c(-c2cc(C#C[C@@H]3COCCN3C)cnc2[C@H](C)OC)c2c3cc(ccc31)-c1csc(n1)C[C@H](NC(=O)[C@H]1[C@H](C)[C@@H]1C)C(=O)N1CCC[C@H](N1)C(=O)OCC(C)(C)C2 (atropisomer, axis not shown; (Ra)) [Compound Z672, (1r,2R,3S)—N-((6^3S,4S,Z)-1^1-ethyl-(Ra)-1^2-(2-((S)-1-methoxyethyl)-5-(((R)-4-methylmorpholin-3-yl)ethynyl)pyridin-3-yl)-10,10-dimethyl-5,7-dioxo-6^1,6^2,6^3,6^4,6^5,6^6hexahydro-1^1H-8-oxa-2(4,2)-thiazola-1(5,3)-indola-6(1,3)-pyridazinacycloundecaphane-4-yl)-2,3-dimethylcyclopropane-1-carboxamide] | 0.3 | 0.73 |  |  |
| CO[C@@H](C)c1ncc(C#CCN2CCCOCC2)cc1-c1c2c3cc(ccc3n1CC(F)(F)F)-c1csc(n1)C[C@H](NC(=O)[C@H]1[C@H](C)[C@@H]1C)C(=O)N1CCC[C@H](N1)C(=O)OCC(C)(C)C2 (atropisomer, axis not shown; (Ra)) [Compound Z700, N-((6^3S,4S,Z)-1^1-(2,2,2-trifluoroethyl)-(Ra)-1^2-(2-((S)-1-methoxyethyl)-(5-(3-(1,4-oxazepan-4-yl)prop-1-yn-1-yl))-pyridin-3-yl)-10,10-dimethyl-5,7-dioxo-6^1,6^2,6^3,6^4,6^5,6^6-hexahydro-1^1H-8-oxa-2(4,2)-thiazola-1(5,3)-indola-6(1,3)-pyridazinacycloundecaphane-4-yl)-2,3-dimethylcyclopropane-1-carboxamide] |  |  | 0.17 | 0.18 |
| CCn1c(-c2cc(C#CCN3C4CCC3COC4)cnc2[C@H](C)OC)c2c3cc(ccc31)-c1csc(n1)C[C@H](NC(=O)[C@H]1[C@H](C)[C@@H]1C)C(=O)N1CCC[C@H](N1)C(=O)OCC(C)(C)C2 (atropisomer, axis not shown; (Ra)) [Compound Z711, (1r,2R,3S)—N-((6^3S,4S,Z)—(Ra)-1^2-(5-(3-(3-oxa-8-azabicyclo[3.2.1]octan-8-yl)prop-1-yn-1-yl)-2-((S)-1-methoxyethyl)pyridin-3-yl)-1^1-ethyl-10,10-dimethyl-5,7-dioxo-6^1,6^2,6^3,6^4,6^5,6^6-hexahydro-1^1H-8-oxa-2(4,2)-thiazola-1(5,3)-indola-6(1,3)-pyridazinacycloundecaphane-4-yl)-2,3-dimethylcyclopropane-1-carboxamide] |  |  | 0.27 | 0.3 |
| CCn1c(-c2cc(C#CCN3CCC(C(F)(F)F)CC3)cnc2[C@H](C)OC)c2c3cc(ccc31)-c1csc(n1)C[C@H](NC(=O)[C@H]1[C@H](C)[C@@H]1C)C(=O)N1CCC[C@H](N1)C(=O)OCC(C)(C)C2 (atropisomer, axis not shown; (Ra)) [Compound Z778] | 1.14 | 2.39 |  |  |
| CCn1c(-c2cc(C#CCN(C)CCOC)cnc2[C@H](C)OC)c2c3cc(ccc31)-c1csc(n1)C[C@H](NC(=O)[C@H]1[C@H](C)[C@@H]1C)C(=O)N1CCC[C@H](N1)C(=O)OCC(C)(C)C2 (atropisomer, axis not shown; (Ra)) [Compound Z788] |  |  | 0.28 | 0.78 |
| CCn1c(-c2cc(C#CCN3CCN(C)C(=O)C3)cnc2[C@H](C)OC)c2c3cc(ccc31)-c1csc(n1)C[C@H](NC(=O)[C@H]1[C@H](C)[C@@H]1C)C(=O)N1CCC[C@H](N1)C(=O)OCC(C)(C)C2 (atropisomer, axis not shown; (Ra)) [Compound Z793] | 0.14 | 0.19 |  |  |
| CCn1c(-c2cc(C#CCN3CCCN(C)CC3)cnc2[C@H](C)OC)c2c3cc(ccc31)-c1csc(n1)C[C@H](NC(=O)[C@H]1[C@H](C)[C@@H]1C)C(=O)N1CCC[C@H](N1)C(=O)OCC(C)(C)C2 (atropisomer, axis not shown; (Ra)) [Compound Z802, (1r,2R,3S)—N-((6^3S,4S,Z)-1^2-(5-(3-(4-methyl-1,4-diaza-1-yl)prop-1-yn-1-yl)-(Ra)-2-((S)-1-methoxyethyl)pyridin-3-yl)-1^1-ethyl-10,10-dimethyl-5,7-dioxo-6^1,6^2,6^3,6^4,6^5,6^6-hexahydro-1^1H-8-oxa-2(4,2)-thiazola-1(5,3)-indola-6(1,3)-pyridazinacycloundecaphane-4-yl)-2,3-dimethylcyclopropane-1-carboxamide] | 0.26 | 0.34 |  |  |
| CCn1c(-c2cc(C#CCN3CCOC[C@H]3C)cnc2[C@H](C)OC)c2c3cc(ccc31)-c1csc(n1)C[C@H](NC(=O)[C@H]1[C@H](C)[C@@H]1C)C(=O)N1CCCC(N1)C(=O)OCC(C)(C)C2 (atropisomer, axis not shown; (Ra)) [Compound Z813] |  |  | 0.15 | 0.18 |
| CCn1c(-c2cc(C#CCN3CCS(=O)(=O)CC3)cnc2[C@H](C)OC)c2c3cc(ccc31)-c1csc(n1)C[C@H](NC(=O)[C@H]1[C@H](C)[C@@H]1C)C(=O)N1CCC[C@H](N1)C(=O)OCC(C)(C)C2 (atropisomer, axis not shown; (Ra)) [Compound Z838, (1r,2R,3S)—N-((6^3S,4S,Z)—(Ra)-1^2-(5-(3-(1,1-dioxidothiomorpholino)prop-1-yn-1-yl)-2-((S)-1-methoxyethyl)pyridin-3-yl)-1^1-ethyl-10,10-dimethyl-5,7-dioxo-6^1,6^2,6^3,6^4,6^5,6^6-hexahydro-1^1H-8-oxa-2(4,2)-thiazola-1(5,3)-indola-6(1,3)-pyridazinacycloundecaphane-4-yl)-2,3-dimethylcyclopropane-1-carboxamide] | 0.06 | 0.03 |  |  |
| CCn1c(-c2cc(C#CCN3CCS(=O)(=O)CC3)cnc2[C@H](C)OC)c2c3cc(ccc31)-c1csc(n1)C[C@H](Nc1nnc3cc(C)ccn13)C(=O)N1CCC[C@H](N1)C(=O)OCC(C)(C)C2 (atropisomer, axis not shown; (Ra)) [Compound Z911, (6^3S,4S,Z)—(Ra)-1^2-(5-(3-(1,1-dioxidothiomorpholino)prop-1-yn-1-yl)-2-((S)-1-methoxyethyl)pyridin-3-yl)-1^1-ethyl-10,10-dimethyl-4-((7-methyl-[1,2,4]triazolo[4,3-a]pyridin-3-yl)amino)-6^1,6^2,6^3,6^4,6^5,6^6-hexahydro-1^1H-8-oxa-2(4,2)-thiazola-1(5,3)-indola-6(1.3)-pyridazinacycloundecaphane-5,7-dione] | 1.16 | 2.27 |  |  |
| CCn1c(-c2cc(C#CCN3CCCOCC3)cnc2[C@H](C)OC)c2c3cc(ccc31)-c1csc(n1)C[C@H](NC(=O)CC1CC1)C(=O)N1CCC[C@H](N1)C(=O)OCC(C)(C)C2 (atropisomer, axis not shown; (Ra)) [Compound Z915] | 1.04 | 2.82 |  |  |
| CCn1c(-c2cc(C#CCN3CCCOCC3)cnc2C(C)C)c2c3cc(ccc31)-c1csc(n1)C[C@H](NC(=O)[C@H]1[C@H](C)[C@@H]1C)C(=O)N1CCC[C@H](N1)C(=O)OCC(C)(C)C2 (atropisomer, axis not shown; (Sa)) [Compound Z811-2, (1r,2R,3S)—N-((6^3S,4S,Z)—(Sa)-1-(5-(3-(1,4-oxazepan-4-yl)prop-1-yn-1-yl)-2-isopropylpyridin-3-yl)-1^1-ethyl-10,10-dimethyl-5,7-dioxo-6^1,6^2,6^3,6^4,6^5,6^6-hexahydro-1^1H-8-oxa-2(4,2)-thiazola-1(5,3)-indola-6(1,3)-pyridazinacycloundecaphane-4-yl)-2,3-dimethylcyclopropane-1-carboxamide] |  |  | 0.63 | 1.41 |
| CCn1c(-c2cc(N3CCN(CCS(C)(=O)=O)CC3)cnc2[C@H](C)OC)c2c3cc(ccc31)-c1csc(n1)C[C@H](NC(=O)[C@H]1[C@H](C)[C@@H]1C)C(=O)N1CCC[C@H](N1)C(=O)OCC1(CC1)C2 (single isomer, unassigned) [Compound Z367] | 2.14 | 13.5 |  |  |
| CCO[C@@H](C)c1ncc(N2CCN(CCS(C)(=O)=O)CC2)cc1-c1c2c3cc(ccc3n1CC)-c1csc(n1)C[C@H](NC(=O)[C@H]1[C@H](C)[C@@H]1C)C(=O)N1CCC[C@H](N1)C(=O)OCC1(CC1)C2 (single isomer, unassigned) [Compound Z378-1] | 3.62 | 14.1 |  |  |
| CCn1c(-c2cc(C#CCN3CCCOCC3)cnc2[C@H](C)OC)c2c3cc(ccc31)-c1csc(n1)C[C@H](NC(=O)[C@H]1[C@H](C)[C@@H]1C)C(=O)N1CCC[C@H](N1)C(=O)OCC(C)(C)C2 (single isomer, unassigned) [Compound Z504] | 0.31 | 0.4 |  |  |
| CCn1c(-c2cc(C#CCN3CCC3)cnc2[C@H](C)OC)c2c3cc(ccc31)-c1csc(n1)C[C@H](NC(=O)[C@H]1[C@H](C)[C@@H]1C)C(=O)N1CCC[C@H](N1)C(=O)OCC(C)(C)C2 (single isomer, unassigned) [Compound Z554] | 0.83 | 1.18 |  |  |
| CCn1c(-c2cc(C#CCN3CCCOCC3)cnc2[C@H](C)OC)c2c3cc(ccc31)-c1csc(n1)C[C@H](NC(=O)[C@H]1C[C@@H]1C)C(=O)N1CCC[C@H](N1)C(=O)OCC(C)(C)C2 (single isomer, unassigned) [Compound Z604] | 0.45 | 0.74 |  |  |
| CCn1c(-c2cc(C#CCN3CCCOCC3)cnc2[C@H](C)OC)c2c3cc(ccc31)-c1csc(n1)C[C@H](NC(=O)CC(C)C)C(=O)N1CCC[C@H](N1)C(=O)OCC(C)(C)C2 (single isomer, unassigned) [Compound Z803] | 0.61 | 1.49 |  |  |
